# From the Deep4Chem optical property database
# Values joined by “and” are separate entries in the source; they are usually repeats but may differ in a detail not shown here. Equal values may be shown once.
# Experiment: solvent given as SMILES
# [1] = in O=P(c1ccccc1)(c1ccccc1)c1ccccc1Oc1ccccc1P(=O)(c1ccccc1)c1ccccc1
compound,measurement,setting,value
CCC1(CC)c2cc(-c3ccc(C(C)(C)C)cc3)ccc2-c2ccc(-c3ccc4c(c3)C(CC)(CC)c3cc(-c5ccc6c(c5)C(CC)(CC)c5cc(-c7ccc(C(C)(C)C)cc7)ccc5-6)ccc3-4)cc21,emission maximum,in CO,402.3 nm
O=C1C2=C3c4sccc4C=CN3C(=O)C2=C2c3sccc3C=CN12,emission maximum,in CN(C)C=O,618 nm
same,emission maximum,in ClC(Cl)Cl,609 nm
Cc1nc2c(ccc3c2sc(/C=C/C=C/c2ccc(N(C)C)cc2)[n+]3C)s1,emission maximum,in CO,700 nm
same,emission maximum,in ClC(Cl)Cl,696 nm
CCC1=C(C)C2=C(C)c3cc(I)c(I)n3[B-](F)(F)[N+]2=C1C,emission maximum,in C1CCCCC1,546 nm
same,emission maximum,in CC(C)=O,544.5 nm
same,emission maximum,in CCO,548 nm
same,emission maximum,in CCOC(C)=O,544.5 nm
same,emission maximum,in CO,546 nm
same,emission maximum,in OCC(F)(F)F,542.5 nm
Cc1cc(C)c(C2=C3C=c4c(c5ccc(C(C)(C)C)cc5c5cc(C(C)(C)C)ccc45)=[N+]3[B-](F)(F)n3c2cc2c4ccc(C(C)(C)C)cc4c4cc(C(C)(C)C)ccc4c23)c(C)c1,emission maximum,in C1CCCCC1,707 nm
same,emission maximum,in C1CCOC1,711 nm
same,emission maximum,in CC#N,711 nm
same,emission maximum,in Cc1ccccc1,715 nm
same,emission maximum,in ClCCl,715 nm
Cc1c(-c2nc(-c3ccccc3)nc(-c3ccccc3)n2)ccc(-n2c3ccccc3c3cc4c(cc32)C2c3ccccc3C4c3ccccc32)c1C,emission maximum,in Cc1ccccc1,427 nm
same,emission maximum,[1],435 nm
Cc1ccc2c(c1)c1cc(C)ccc1n2-c1cccc(-n2c3ccc(C)cc3c3cc(C)ccc32)c1C#N,emission maximum,in Cc1ccccc1,417 nm
same,emission maximum,[1],432 nm
CN(C)c1ccc(/C=C/c2ncccn2)cc1,emission maximum,in ClCCl,472 nm
c1ccc(-c2nc(-c3ccccc3)nc(-c3ccc(-n4c5ccc(-n6c7ccccc7c7ccccc76)cc5c5cc(-n6c7ccccc7c7ccccc76)ccc54)cc3)n2)cc1,emission maximum,in Cc1ccccc1,458 nm
same,emission maximum,[1],475 nm and 450.31 nm
C=CCN(CC=C)c1ccc(-c2cc(-c3ccc(N(CC=C)CC=C)cc3)cc(-c3ccc(N(CC=C)CC=C)cc3)c2)cc1,emission maximum,in ClCCl,397.56 nm
C=Cc1ccc(OC)cc1,emission maximum,in C1CCCCC1,322 nm
same,emission maximum,in CC#N,323 nm
CN(C)CCNc1ccc([N+](=O)[O-])cc1[N+](=O)[O-],emission maximum,in C1CCCCC1,368 nm
same,emission maximum,in C1CCOC1,389 nm
same,emission maximum,in C1COCCO1,385 nm
same,emission maximum,in CC#N,399 nm
same,emission maximum,in CC(C)=O,401 nm
same,emission maximum,in CCCCCC,363 nm
same,emission maximum,in CCO,394 nm
same,emission maximum,in CCOC(C)=O,384 nm
same,emission maximum,in CN(C)C=O,406 nm
same,emission maximum,in CO,389 nm
same,emission maximum,in CS(C)=O,417 nm
same,emission maximum,in Cc1ccccc1,385 nm
same,emission maximum,in ClC(Cl)Cl,389 nm
same,emission maximum,in ClCCl,393 nm
N#Cc1cc(N2c3ccccc3Oc3ccccc32)cc(N2c3ccccc3Oc3ccccc32)c1,emission maximum,in Cc1ccccc1,520 nm
F[B-]1(F)n2c(cc(Br)c2Br)C(c2ccccc2)=C2C=C(Br)C(Br)=[N+]21,emission maximum,in ClC(Cl)Cl,570 nm
CCCc1ccc(C#Cc2ccc3nc4ccc(C#Cc5ccc(CCC)cc5)cn4c(=O)c3c2)cc1,emission maximum,in ClCCl,480 nm
N#Cc1nc(N(Cc2ccccc2Br)Cc2ccccc2Br)c(C#N)nc1N(Cc1ccccc1Br)Cc1ccccc1Br,emission maximum,in ClC(Cl)Cl,565 nm
CSc1ccc(-c2nc3sc4ccccc4c3s2)cc1,emission maximum,in CS(C)=O,431 nm
CN(C)c1ccc(C(=O)Nc2ccc(Cl)cc2)cc1,emission maximum,in C1CCCCC1,435 nm
same,emission maximum,in C1CCOC1,490 nm
same,emission maximum,in CC#N,498 nm
same,emission maximum,in CCOCC,481 nm
O=P1(c2ccccc2)C2=C(c3ccccc31)[Si](c1ccccc1)(c1ccccc1)c1cc(N(c3ccccc3)c3ccccc3)ccc12 (stereo unspecified),emission maximum,in CC#N,629 nm
same,emission maximum,in CO,640 nm
same,emission maximum,in Cc1ccccc1,558 nm
N#Cc1nn(-c2ccc(F)cc2)nc1N1CCCC1,emission maximum,in CC#N,422 nm
Cc1cc(C)c(C)c(-c2cc(-c3c(C)c(C)cc(C)c3C)c3ccc4c(-c5c(C)c(C)cc(C)c5C)cc(-c5c(C)c(C)cc(C)c5C)c5ccc2c3c54)c1C,emission maximum,in ClCCl,412 nm
CC(C)Nc1cc2oc3cc(NC(C)C)c(F)cc3c(=O)c2cc1F,emission maximum,in CCO,422 nm
N#Cc1c(N2CCCCC2)cc(-c2ccc(O)cc2)c2c1-c1cccc3cccc-2c13,emission maximum,in C1CCCCC1,527 nm
same,emission maximum,in C1COCCO1,540 nm
same,emission maximum,in CC#N,569 nm
same,emission maximum,in CCO,548 nm
same,emission maximum,in CN(C)C=O,573 nm
same,emission maximum,in CO,554 nm
same,emission maximum,in CS(C)=O,580 nm
same,emission maximum,in Cc1ccccc1,530 nm
same,emission maximum,in ClCCl,545 nm
same,emission maximum,in O,550 nm
CCOC(=O)/C=C/c1cc2ccc(-c3cn(Cc4ccccc4)nn3)cc2oc1=O,emission maximum,in CCO,435 nm
Cc1cc(-c2nc(-c3ccccc3)nc(-c3ccccc3)n2)ccc1N1c2ccccc2CCc2ccccc21,emission maximum,in Cc1ccccc1,481.75 nm
Fc1ccc(C#Cc2nc(C#Cc3ccc(F)cc3)c(C#Cc3ccc(F)cc3)c(C#Cc3ccc(F)cc3)c2C#Cc2ccc(F)cc2)cc1,emission maximum,in ClCCl,436 nm
COC(=O)[C@@H]1C(=O)Oc2ccccc2[C@H]1c1c[nH]c2ccccc12,emission maximum,in CS(C)=O,376 nm
CCCN1c2ccccc2Sc2cc(/C=C\c3cc(=O)oc4ccccc34)ccc21,emission maximum,in ClC(Cl)Cl,618 nm
CCCN1c2ccccc2Sc2cc(/C=C\c3cc(=O)oc4cc(C)c(Cl)cc34)ccc21,emission maximum,in ClC(Cl)Cl,648 nm
O=C1c2ccccc2C2=Cc3cccc[n+]3[B-](F)(F)N12,emission maximum,in CCO,449 nm
same,emission maximum,in Cc1ccccc1,459 nm
same,emission maximum,in ClCCl,454 nm
CCCC1=Cc2nc1ccc1[nH]c(cc1CCC)c1nc(c(OC(C)=O)cc3[nH]c2cc3CCC)C(CCC)=C1,emission maximum,in Cc1ccccc1,650 nm
CCOC(=O)c1cc(C(=O)OCC)c2ccc(N(C)C)cc2n1,emission maximum,in CCO,541 nm
Cc1cc(C)c(C2=C3C=C(/C=C/C(=O)OCc4ccccc4)C=[N+]3[B-](F)(F)n3cc(/C=C/C(=O)OCc4ccccc4)cc32)c(C)c1,emission maximum,in ClCCl,604 nm
Cc1cc(C2(c3cc(C)c(O)c(Br)c3)OS(=O)(=O)c3ccccc32)cc(Br)c1O,emission maximum,in C1CCOC1,492 nm
same,emission maximum,in C1COCCO1,450 nm
same,emission maximum,in CC#N,497 nm
same,emission maximum,in CC(C)(C)O,473 nm
same,emission maximum,in CC(C)=O,490 nm
same,emission maximum,in CC(C)O,498 nm
same,emission maximum,in CCCCCO,485 nm
same,emission maximum,in CCCO,505 nm
same,emission maximum,in CCO,507 nm
same,emission maximum,in CCOC(C)=O,478 nm
same,emission maximum,in CCOCC,476 nm
same,emission maximum,in CO,502 nm
CCOC(=O)C1=CN(c2ccccc2)C=CC1c1ccccc1 (stereo unspecified),emission maximum,in C1CCOC1,419 nm
same,emission maximum,in CO,442 nm
COC(=O)c1cc(=O)n(C)c2cc(-c3cc4c5c(c3)CCCN5CCC4)sc12,emission maximum,in C1CCOC1,502 nm
same,emission maximum,in CC#N,511 nm
same,emission maximum,in CCO,508 nm
same,emission maximum,in CN(C)C=O,509 nm
same,emission maximum,in CO,493 nm
same,emission maximum,in CS(C)=O,508 nm
same,emission maximum,in Cc1ccccc1,529 nm
same,emission maximum,in ClC(Cl)Cl,580 nm
same,emission maximum,in ClCCl,605 nm
CCCCN1C(=O)C(=CC=C2N(CCCC)c3ccccc3N2CCCC)C(=O)N(CCCC)C1=S,emission maximum,in CCCCCC,488 nm
same,emission maximum,in CCO,478 nm
same,emission maximum,in CN(C)C=O,482 nm
same,emission maximum,in Cc1ccccc1,490 nm
same,emission maximum,in ClC(Cl)Cl,489 nm
same,emission maximum,in ClCCl,486 nm
O=c1oc2ccccc2cc1-c1cc2ccccc2o1,emission maximum,in CC#N,442 nm
same,emission maximum,in CCOC(C)=O,433 nm
same,emission maximum,in CS(C)=O,450 nm
same,emission maximum,in Cc1ccccc1,431 nm
same,emission maximum,in O,475 nm
